Experimental data: the OPERA property sets (Mansouri et al. 2018)

Conditions: for log10 BCF / log10 biotransformation half-life (days): fish

SMILES	boiling point [°C]	melting point [°C]	other results
CC(C)(C)S	64	-0.5	log10 vapour pressure (mmHg): 2.26
COc1cc(OC)nc(N=C(O)NS(=O)(=O)Nc2ccccc2C(=O)C2CC2)n1		162	
O=[N+]([O-])c1cccs1	224	46.5	
CCCC(C)C=O (centres undefined)	117		
CCCCOCCOP(=O)(OCCOCCCC)OCCOCCCC		-70	ready biodegradability: not readily biodegradable; log10 BCF: 0.76
CC(=O)CCC(=O)OCC(C)C	228		
CC(O)COc1ccccc1 (centres undefined)	243		
N#Cc1nc(C#N)nc(C#N)n1	262	119	
CCCCCCCCCCCCCCCCCCCCCCCCCCCCC	441	63.7	log10 biodegradation half-life (days): 2; log10 vapour pressure (mmHg): -9.37; ready biodegradability: readily biodegradable
CC(C)C1CCC(Cc2ccc(Cl)cc2)C1(O)Cn1cncn1 (centres undefined)		89	log10 vapour pressure (mmHg): -7.4
CC(O)C(=O)O (centres undefined)		40.9	log10 vapour pressure (mmHg): -1.09; ready biodegradability: readily biodegradable
N#Cc1cc(I)c(O)c(I)c1		212	ready biodegradability: not readily biodegradable
CC(C)CC(=O)OC(C)C	142		
OC1CCCCCCCCCCC1		77.5	log10 Henry constant (atm·m³/mol): -5.53
CNC(=O)ON=C(C)C(C)SC (centres undefined)		25	log10 vapour pressure (mmHg): -4.1
O=C(Cl)C(F)(F)C(F)(F)C(F)(F)C(F)(F)C(F)(F)C(F)(F)C(F)(F)F	131		
COC(=O)C=CC(=O)OC			ready biodegradability: readily biodegradable
CC(=O)C1CCC1	138		
CCCCCCCCCCCCCCCCOC(C)=O		-18.5	
COc1cc(C)cc(OC)c1	244		
CCCOC(=O)c1ccc(O)cc1		97	
Cc1cnccn1	137	-29	log10 Henry constant (atm·m³/mol): -5.66; log10 vapour pressure (mmHg): 0.906
CC1CCC(C(C)C)C(O)C1 (centres undefined)		39	log10 vapour pressure (mmHg): -1.08; ready biodegradability: not readily biodegradable; log10 BCF: 1.03; log10 biotransformation half-life (days): -1.19
CCCCC(C)(O)CCC (centres undefined)	180		
CC(=O)c1ccc2ccccc2c1O		101	

SMILES	boiling point [°C]	melting point [°C]	other results
O=C1C=CC(=O)c2c(O)cccc21		155	
CCCC(=O)CCC(C)C	178		
CC(=O)CC(C)(C)C	126	-64	
CC(O)C(C)O[N+](=O)[O-] (centres undefined)			log10 Henry constant (atm·m³/mol): -7
Cc1ccccn1	129	-66.7	log10 Henry constant (atm·m³/mol): -5; log10 vapour pressure (mmHg): 1.05; ready biodegradability: readily biodegradable
N=C(N)NC(=O)Cc1c(Cl)cccc1Cl		226	
O=C1NC(=O)C2CC=CCC12 (centres undefined)			ready biodegradability: not readily biodegradable
Cc1cc(O)c(C(C)(C)C)cc1Sc1cc(C(C)(C)C)c(O)cc1C		162	ready biodegradability: not readily biodegradable
N#Cc1cc(I)c(O)c([N+](=O)[O-])c1		138	
CCOC(=O)C(C)[N+](=O)[O-] (centres undefined)	190		
CNC(=O)N(C)c1nnc(C(C)(C)C)s1			log10 Henry constant (atm·m³/mol): -9.92; log10 Koc (L/kg): 1.83; log10 vapour pressure (mmHg): -5.7
CCCc1ccc(N)cc1	225		
Cc1ccc(C(C)C)cc2c(C)ccc1-2		31.5	
CN1CCN(C(c2ccccc2)c2ccccc2)CC1		106	
C[C@]12CC[C@H](O)C[C@H]1CC[C@@H]1[C@@H]2CC[C@]2(C)[C@@H](C3=CC(=O)OC3)CC[C@]12O		253	
CC1(C)CC(O)CC(C)(C)N1			ready biodegradability: not readily biodegradable
O=C1CCCCC1C1=CCCCC1 (centres undefined)	265	-78	ready biodegradability: not readily biodegradable; log10 BCF: 0.7
CCC1(CC)C(=O)NC(=O)NC1=O		190	
CN(C)C(=S)SSC(=S)N(C)C		156	log10 Koc (L/kg): 2.83; log10 vapour pressure (mmHg): -4.76; ready biodegradability: readily biodegradable; log10 BCF: 0.53; log10 biotransformation half-life (days): -1.18
NNC(=O)c1ccc(N)cc1O		195	
CC(=O)Nc1ccc(F)cc1		154	log10 Koc (L/kg): 1.48
CCOP(=S)(OCC)Oc1ccc(S(C)(=O)=O)cc1			log10 Koc (L/kg): 2.17
NC(=O)Nc1cccc2ccccc12		220	
COC(C)CC(OC)OC (centres undefined)	157		
CC(C)(O)C(Br)(Br)Br		169	

SMILES	boiling point [°C]	melting point [°C]	other results
CCCCCCc1ccc(O)cc1O	334	68	
CC(=O)Nc1cc(NS(=O)(=O)C(F)(F)F)c(C)cc1C		184	log10 Koc (L/kg): 2.3
CC(=O)C=NO		69	
O=C(O)CC(=O)O			ready biodegradability: readily biodegradable
CCCCCC(C)CCC (centres undefined)	166	-99	
CCCN1CCCCC1	152		
CNC(=O)CSP(=O)(OC)OC		-28	log10 vapour pressure (mmHg): -4.61
CCO[SiH](OCC)OCC	134		
Cc1ccc(C)c([N+](=O)[O-])c1	240	-25	
Fc1cc(F)c(F)cc1F	90.2	4.5	log10 vapour pressure (mmHg): 1.75
O=C(O)c1ccccc1C(=O)Nc1cccc2ccccc12		185	
Clc1ccc(-c2ccccc2Cl)cc1Cl			log10 Henry constant (atm·m³/mol): -3.8; log10 vapour pressure (mmHg): -3.99
O=C(O)/C=C/c1ccccc1C(F)(F)F		206	
CCCCBr	101	-112	log10 vapour pressure (mmHg): 1.62
CNCCc1ccc(O)c(O)c1		188	
Cc1nonc1C	156	-7	
CC(=O)OCCc1ccccc1	233	-31.1	log10 Koc (L/kg): 1.89; log10 vapour pressure (mmHg): -1.5
Clc1ccc(Cl)cc1	174	52.1	log10 Henry constant (atm·m³/mol): -2.62; log10 Koa: 4.46; log10 Koc (L/kg): 2.65; log10 vapour pressure (mmHg): 0.24; ready biodegradability: not readily biodegradable; log10 BCF: 2.62; log10 biotransformation half-life (days): 1.1
COc1ccc2[nH]c3c(c2c1)CCNC3C (centres undefined)		150	
O=c1cc(CO)occ1O		154	
COc1ccc(N=[N+]([O-])c2ccc(OC)cc2)cc1		127	
CCCCCCc1ccc(N)cc1	282		
FC(Cl)(Cl)I	90	-107	
CON(C)C(=O)Nc1ccc(Br)c(Cl)c1		96	log10 Koc (L/kg): 2.7; log10 vapour pressure (mmHg): -6.4
CCN(CC)CC(=O)Nc1c(C)cc(C)cc1C		44	

SMILES	boiling point [°C]	melting point [°C]	other results
C=C1CCCC1	75.5		
Clc1ccc(C2(Cn3cncn3)CC(Br)CO2)c(Cl)c1 (centres undefined)		84	log10 vapour pressure (mmHg): -7.52
CCCCCc1ccc(-c2ccccc2)cc1			log10 biotransformation half-life (days): 0.03
O=C(Nc1ccccc1)NC1CCCCCC1			log10 Koc (L/kg): 2.37
Cc1ccc2[nH]ccc2c1	267	60	
O=C(O)c1ccccc1Nc1cccc(C(F)(F)F)c1		134	
c1cc2c(cc1O[C@H]1OC[C@H]3[C@@H]1CO[C@@H]3c1ccc3c(c1)OCO3)OCO2		93.5	
CN(C)c1ccc(/N=N/c2ccccc2C(=O)O)cc1		183	
C=CC(C)(C)C(=O)O	185	-6	
CCC(C)C(C)C(C)(C)C (centres undefined)	157		
CCCCCC[Si](Cl)(Cl)Cl	190		
O=C(O)C(Br)CBr (centres undefined)		66.5	
O=Cc1c[nH]c2ccccc12		196	
Ic1ccccc1I	287	27	
CCCCCCCCCCCCCCBr	307	5.6	log10 vapour pressure (mmHg): -3.35
ClC(Cl)I	132		
Cc1ccc(NC(=O)N(C)C)cc1Cl		148	log10 Koc (L/kg): 2.02; log10 vapour pressure (mmHg): -7.44; ready biodegradability: not readily biodegradable
c1ccc2c(c1)OCCOCCOCCOCCO2		79	
CC(C)N(C(=O)SCC(Cl)=CCl)C(C)C		25	log10 Koc (L/kg): 3.28; log10 vapour pressure (mmHg): -3.82
Clc1cccc(Cl)c1-c1c(Cl)cccc1Cl			log10 Henry constant (atm·m³/mol): -3.7; log10 Koc (L/kg): 4.9; log10 BCF: 3.85
CC(=O)CC1CCCCN1 (centres undefined)	195		
CCOC(=O)C(C)(C)C(=O)OCC	197	-30.4	
O=C(O)c1ccc(Cl)cc1Cl		164	ready biodegradability: not readily biodegradable
CCOC(=O)CN	149		
CC(=O)O.CCCCCCCCCCCCCCCCCC1=NCCN1		65	

SMILES	boiling point [°C]	melting point [°C]	other results
C[C@]12CC[C@H]3C(=CCc4cc(O)ccc43)[C@@H]1CC[C@@H]2O		174	
CCC1(N2CCCCC2)C(=O)NC(=O)NC1=O		215	
S=C=Nc1cccc(Cl)c1	250		
CN(C)c1ccccc1[N+](=O)[O-]		-20	
C[C@@H]1CC[C@@]2(OC1)O[C@H]1C[C@H]3[C@@H]4CC[C@H]5C[C@@H](O)CC[C@]5(C)[C@H]4CC(=O)[C@]3(C)[C@H]1[C@@H]2C		266	
CCCCCC(C)Br (centres undefined)	166	47	log10 vapour pressure (mmHg): 0.358
Brc1cc(Br)c(Oc2c(Br)cc(Br)c(Br)c2Br)c(Br)c1Br			log10 BCF: 5.3
CC(C)=CC1C(C(=O)OCc2coc(Cc3ccccc3)c2)C1(C)C (centres undefined)		44.2	log10 Koc (L/kg): 5
CC(C)(C)C(=O)C(Oc1ccc(Cl)cc1)n1cncn1 (centres undefined)		82	log10 Koc (L/kg): 2.71; log10 vapour pressure (mmHg): -7.82
CC(C)=C(C)Cl	96		
CCOC(=O)C1(c2ccccc2)CCN(C)CC1		270	
CCCCC(C)C(C)=O (centres undefined)	164		
COc1ccc(-c2cc(=O)c3c(O)c(OC)c(O)cc3o2)cc1		221	
CC(CO)(CO)CO	283	204	ready biodegradability: not readily biodegradable
Cc1c(N)cccc1[N+](=O)[O-]	305	92	
C=CC=CC(=O)O		79	
Cc1cccc(C(=O)N(NC(=O)c2ccccc2)C(C)(C)C)c1		211	
COC(=O)[C@H]1[C@H]2C[C@@H]3c4[nH]c5cc(OC)ccc5c4CCN3C[C@H]2C[C@@H](OC(=O)c2cc(OC)c(OC)c(OC)c2)[C@@H]1OC		264	
ICC(CI)(CI)CI		225	
C=C1CC[C@H]2O[C@]2(C)CC[C@@H]2[C@@H]1CC2(C)C		62.5	
CC(C)C(C)C(C)C(C)C (centres undefined)	156		
C=CCCCCCCCCC(=O)OCC	264	-38	
C[Si](C)(C)CCCCl	151		
Cc1cccc2cc3c(ccc4ccccc43)cc12		156	
CCNc1cccc(O)c1		62	
